Assay results: patent US20150133426A1, “SUBSTITUTED PYRROLOPYRIMIDINES” (BAYER PHARMA AKTIENGESELLSCHAFT, priority 2012, published 2015)

Biological target: T1, human full-length MKNK1 (Homo sapiens, UniProt Q9BUB5, T385D)
T1 construct: purchased Carna Biosciences 02-145; host or cells: insect cells, baculovirus expression system
Test: MKNK1 kinase high ATP assay (TR-FRET)
Format: biochemical
Details: high ATP (2 mM), 15 min preincubation with enzyme, GST-MKNK1 (T344D)
Method in brief: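 GST-tagged full-length human MKNK1 (aa 1-424, T344D), baculovirus-expressed, preincubated 15 min with compound, then reacted 30 min at 22 °C with 2 mM ATP and 0.06 µM biotinylated peptide (final).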

T1 sequence (Q9BUB5 1-424 isoform Q9BUB5-2 T344D): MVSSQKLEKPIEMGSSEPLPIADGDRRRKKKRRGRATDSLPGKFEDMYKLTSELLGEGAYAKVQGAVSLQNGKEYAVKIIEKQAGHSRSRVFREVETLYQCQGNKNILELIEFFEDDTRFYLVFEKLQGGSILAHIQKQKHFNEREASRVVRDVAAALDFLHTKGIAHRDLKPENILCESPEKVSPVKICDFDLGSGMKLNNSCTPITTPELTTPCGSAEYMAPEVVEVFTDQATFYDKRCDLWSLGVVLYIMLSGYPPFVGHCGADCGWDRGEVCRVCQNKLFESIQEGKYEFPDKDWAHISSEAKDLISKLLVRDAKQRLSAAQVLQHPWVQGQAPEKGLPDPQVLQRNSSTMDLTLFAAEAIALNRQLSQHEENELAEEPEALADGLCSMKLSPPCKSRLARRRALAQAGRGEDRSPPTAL

SMILES	IC50 [nM]
CC(C)Oc1cc(F)ccc1Nc1ncnc2[nH]c3c(c12)C[S+]([O-])CC3 (racemic) [Example 86, (RS)—N-(4-Fluoro-2-isopropoxyphenyl)-5,7,8,9-tetrahydrothiopyrano[3′,4′:4,5]pyrrolo[2,3-d]pyrimidin-4-amine 6-oxide]	220
COCC1(OC)CCc2[nH]c3ncnc(Nc4cc5cn[nH]c5cc4OC(C)C)c3c2C1 (racemic) [Example 231, (RS)-6-Methoxy-6-(methoxymethyl)-N-[6-(propan-2-yloxy)-1H-indazol-5-yl]-6,7,8,9-tetrahydro-5H-pyrimido[4,5-b]indol-4-amine]	50
CS(=O)(=O)CCCNC(=O)C1CCc2[nH]c3ncnc(Nc4cc5cn[nH]c5cc4F)c3c2C1 (racemic) [Example 61, (RS)-4-[(6-Fluoro-1H-indazol-5-yl)amino]-N-[3-(methylsulfonyl)propyl]-6,7,8,9-tetrahydro-5H-pyrimido[4,5-b]indole-6-carboxamide]	17
COc1ccc(N(C)C)cc1Nc1ncnc2[nH]c3c(c12)CC(C(=O)NCCCS(C)(=O)=O)CC3 (racemic) [Example 158, (RS)-4-{[5-(Dimethylamino)-2-methoxyphenyl]amino}-N-[3-(methylsulfonyl)propyl]-6,7,8,9-tetrahydro-5H-pyrimido[4,5-b]indole-6-carboxamide]	≥ 20000
FC1(F)CCc2[nH]c3ncnc(Nc4ccc5[nH]ncc5c4)c3c2C1 [Example 10, 6,6-Difluoro-N-(1H-indazol-5-yl)-6,7,8,9-tetrahydro-5H-pyrimido[4,5-b]indol-4-amine]	24
COc1cccc(C)c1Nc1ncnc2[nH]c3c(c12)CC(C(=O)NCCCS(C)(=O)=O)CC3 (racemic) [Example 75, (RS)-4-[(2-Methoxy-6-methylphenyl)amino]-N-[3-(methylsulfonyl)propyl]-6,7,8,9-tetrahydro-5H-pyrimido[4,5-b]indole-6-carboxamide]	7670
Cc1nc2c(Nc3ncnc4[nH]c5c(c34)CC(C(=O)NCCCS(C)(=O)=O)CC5)cccc2[nH]1 (racemic) [Example 169, (RS)-4-[(2-Methyl-1H-benzimidazol-4-yl)amino]-N-[3-(methylsulfonyl)propyl]-6,7,8,9-tetrahydro-5H-pyrimido[4,5-b]indole-6-carboxamide]	2700
CC(C)Oc1cc(F)ccc1Nc1ncnc2[nH]c3c(c12)CC(C(=O)O)CC3 (racemic) [Example 183, (RS)-4-{[4-Fluoro-2-(propan-2-yloxy)phenyl]amino}-6,7,8,9-tetrahydro-5H-pyrimido[4,5-b]indole-6-carboxylic acid]	406
COc1cc(Cl)c(Cl)cc1Nc1ncnc2[nH]c3c(c12)CC(C(=O)NC(C)C)CC3 (racemic) [Example 226, (RS)-4-[(4,5-Dichloro-2-methoxyphenyl)amino]-N-(propan-2-yl)-6,7,8,9-tetrahydro-5H-pyrimido[4,5-b]indole-6-carboxamide]	19
COc1cc2[nH]ncc2cc1Nc1ncnc2[nH]c3c(c12)CCCC3 [Example 112]	6
COc1cc2[nH]ncc2cc1Nc1ncnc2[nH]c3c(c12)CC(C(=O)N1CCN(C)CC1)CC3 (racemic) [Example 221, (RS)-{4-[(6-Methoxy-1H-indazol-5-yl)amino]-6,7,8,9-tetrahydro-5H-pyrimido[4,5-b]indol-6-yl}(4-methylpiperazin-1-yl)methanone]	4
CCOC(=O)C1CCc2[nH]c3ncnc(Nc4ccccc4N4CCOCC4)c3c2C1 (racemic) [Example 172, (RS)-Ethyl 4-{[2-(morpholin-4-yl)phenyl]amino}-6,7,8,9-tetrahydro-5H-pyrimido[4,5-b]indole-6-carboxylate]	751
O=c1[nH]c2ccc(Nc3ncnc4[nH]c5c(c34)CCCC5)cc2[nH]1 [Example 115]	1790
Cc1ccc(Nc2ncnc3[nH]c4c(c23)CC(C(=O)NCCCS(C)(=O)=O)CC4)cc1S(=O)(=O)O (racemic) [Example 59, (RS)-2-Methyl-5-[(6-{[3-(methylsulfonyl)propyl]carbamoyl}-6,7,8,9-tetrahydro-5H-pyrimido[4,5-b]indol-4-yl)amino]benzenesulfonic acid]	124
CS(=O)(=O)CCCNC(=O)C1CCc2[nH]c3ncnc(Nc4ccccc4OC4CCCC4)c3c2C1 (racemic) [Example 78, (RS)-4-{[2-(Cyclopentyloxy)phenyl]amino}-N-[3-(methylsulfonyl)propyl]-6,7,8,9-tetrahydro-5H-pyrimido[4,5-b]indole-6-carboxamide]	24
c1nc(Nc2ccc3[nH]ncc3c2)c2c3c([nH]c2n1)CCCC3 [Example 2, N-(1H-Indazol-5-yl)-6,7,8,9-tetrahydro-5H-pyrimido[4,5-b]indol-4-amine]	27
COc1cc(Cl)c(Cl)cc1Nc1ncnc2[nH]c3c(c12)CC(C(=O)NC1CC1)CC3 (racemic) [Example 20, (RS)—N-Cyclopropyl-4-[(4,5-dichloro-2-methoxyphenyl)amino]-6,7,8,9-tetrahydro-5H-pyrimido[4,5-b]indole-6-carboxamide]	6

SMILES	IC50 [nM]
CS(=O)(=O)CCCNC(=O)C1CCc2[nH]c3ncnc(Nc4ccccc4N4CCOCC4)c3c2C1 (racemic) [Example 30, (RS)—N-[3-(Methylsulfonyl)propyl]-4-{[2-(morpholin-4-yl)phenyl]amino}-6,7,8,9-tetrahydro-5H-pyrimido[4,5-b]indole-6-carboxamide]	52
CS(=O)(=O)CCCNC(=O)C1CCc2[nH]c3ncnc(Sc4ccc5[nH]ncc5c4)c3c2C1 (racemic) [Example 146, (RS)-4-(1H-Indazol-5-ylsulfanyl)-N-[3-(methylsulfonyl)propyl]-6,7,8,9-tetrahydro-5H-pyrimido[4,5-b]indole-6-carboxamide]	1130
CS(=O)(=O)CCCNC(=O)C1CCc2[nH]c3ncnc(Nc4ccccc4OCC(F)F)c3c2C1 (racemic) [Example 152, (RS)-4-{[2-(2,2-Difluoroethoxy)phenyl]amino}-N-[3-(methylsulfonyl)propyl]-6,7,8,9-tetrahydro-5H-pyrimido[4,5-b]indole-6-carboxamide]	113
CC(C)Oc1cc(F)ccc1Nc1ncnc2c1c1c(n2C)CCC(C(=O)NCCCS(C)(=O)=O)C1 (racemic) [Example 25, (RS)-4-[(4-Fluoro-2-isopropoxyphenyl)amino]-9-methyl-N-[3-(methylsulfonyl)propyl]-6,7,8,9-tetrahydro-5H-pyrimido[4,5-b]indole-6-carboxamide]	381
COc1cc(N2CCOCC2)ccc1Nc1ncnc2[nH]c3c(c12)CC(C(=O)NCCCS(C)(=O)=O)CC3 (racemic) [Example 71, (RS)-4-{[2-Methoxy-4-(morpholin-4-yl)phenyl]amino}-N-[3-(methylsulfonyl)propyl]-6,7,8,9-tetrahydro-5H-pyrimido[4,5-b]indole-6-carboxamide]	10800
O=C(NCc1ccccc1)C1CCc2[nH]c3ncnc(Nc4ccccc4N4CCOCC4)c3c2C1 (racemic) [Example 206, (RS)—N-Benzyl-4-{[2-(morpholin-4-yl)phenyl]amino}-6,7,8,9-tetrahydro-5H-pyrimido[4,5-b]indole-6-carboxamide]	77
CCNC(=O)C1CCc2[nH]c3ncnc(Nc4ccc5[nH]ncc5c4)c3c2C1 (racemic) [Example 7, (RS)—N-Ethyl-4-(1H-indazol-5-ylamino)-6,7,8,9-tetrahydro-5H-pyrimido[4,5-b]indole-6-carboxamide]	20
Cc1cc(=O)oc2cc(Nc3ncnc4[nH]c5c(c34)CC(C(=O)NCCCS(C)(=O)=O)CC5)ccc12 (racemic) [Example 33, (RS)-4-[(4-Methyl-2-oxo-2H-chromen-7-yl)amino]-N-[3-(methylsulfonyl)propyl]-6,7,8,9-tetrahydro-5H-pyrimido[4,5-b]indole-6-carboxamide]	394
CCOC(=O)C1CCc2[nH]c3ncnc(N4CCc5ccccc54)c3c2C1 (racemic) [Example 173, (RS)-Ethyl 4-(2,3-dihydro-1H-indol-1-yl)-6,7,8,9-tetrahydro-5H-pyrimido[4,5-b]indole-6-carboxylate]	3600
CCOC(=O)C1CCc2[nH]c3ncnc(Nc4cc(Cl)ccc4OC(C)C)c3c2C1 (racemic) [Example 177, (RS)-Ethyl 4-{[5-chloro-2-(propan-2-yloxy)phenyl]amino}-6,7,8,9-tetrahydro-5H-pyrimido[4,5-b]indole-6-carboxylate]	17000
O=c1[nH]c2ccc(Nc3ncnc4[nH]c5c(c34)CCCC5)cc2[nH]c1=O [Example 110]	12200
COc1ccc(Cl)cc1Nc1ncnc2[nH]c3c(c12)CCCC3 [Example 125]	104
CN1CCN(C(=O)C2CCc3[nH]c4ncnc(N5CCc6ccccc65)c4c3C2)CC1 (racemic) [Example 211, (RS)-[4-(2,3-Dihydro-1H-indol-1-yl)-6,7,8,9-tetrahydro-5H-pyrimido[4,5-b]indol-6-yl](4-methylpiperazin-1-yl)methanone]	3410
[O-][S+]1CCc2[nH]c3ncnc(Nc4ccc5[nH]ncc5c4)c3c2C1 (racemic) [Example 85, (RS)—N-(1H-Indazol-5-yl)-5,7,8,9-tetrahydrothiopyrano[3′,4′:4,5]pyrrolo[2,3-d]pyrimidin-4-amine 6-oxide]	192
Cc1ccc(Nc2ncnc3[nH]c4c(c23)CC(C(=O)NCCCS(C)(=O)=O)CC4)c(O)c1 (racemic) [Example 54, (RS)-4-[(2-Hydroxy-4-methylphenyl)amino]-N-[3-(methylsulfonyl)propyl]-6,7,8,9-tetrahydro-5H-pyrimido[4,5-b]indole-6-carboxamide]	3080
COc1cc(Cl)c(C)cc1Nc1ncnc2[nH]c3c(c12)CC(C(=O)NCCCS(C)(=O)=O)CC3 (racemic) [Example 162, (RS)-4-[(4-Chloro-2-methoxy-5-methylphenyl)amino]-N-[3-(methylsulfonyl)propyl]-6,7,8,9-tetrahydro-5H-pyrimido[4,5-b]indole-6-carboxamide]	120
